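Five concentrations, 48 hours, 96-well plates. The concentration for 50% growth inhibition is given as GI50.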 Active and inactive are the calls of the source. Cut-off read from the data, not from the text of the source: active = GI50 up to about 1.1 µM and inactive = higher.
Columns and labels:
Assay in all cases: NCI tumour cell line growth inhibition, 48 h
SK-OV-3 = system: SK-OV-3
SF-268 = system: SF-268
U-251 = system: U-251
UO-31 = system: UO-31
MOLT-4 = system: MOLT-4
SK-MEL-28 = system: SK-MEL-28
NCI-H226 = system: NCI-H226
KM12 = system: KM12
CAKI-1 = system: CAKI-1
SK-MEL-5 = system: SK-MEL-5
OVCAR-8 = system: OVCAR-8
UACC-257 = system: UACC-257
CCRF-CEM = system: CCRF-CEM
HCT-15 = system: HCT-15
MCF7 = system: MCF7
BT-549 = system: BT-549
HOP-92 = system: HOP-92
MDA-N = system: MDA-N
LOX IMVI = system: LOX IMVI
NCI-H522 = system: NCI-H522
OVCAR-4 = system: OVCAR-4
SR = system: SR
SK-MEL-2 = system: SK-MEL-2
EKVX = system: EKVX
SNB-19 = system: SNB-19
UACC-62 = system: UACC-62
Hs-578T = system: Hs-578T
A549 = system: A549
MDA-MB-435 = system: MDA-MB-435
SF-295 = system: SF-295
ACHN = system: ACHN
HT-29 = system: HT-29
HCT-116 = system: HCT-116
NCI-H460 = system: NCI-H460
Malme-3M = system: Malme-3M
HOP-62 = system: HOP-62
786-0 = system: 786-0
M14 = system: M14
T47D = system: T47D
SN12C = system: SN12C
DU-145 = system: DU-145
NCI-H23 = system: NCI-H23
K562 = system: K562
NCI/ADR-RES = system: NCI/ADR-RES
IGROV-1 = system: IGROV-1
RXF 393 = system: RXF 393
SW-620 = system: SW-620
OVCAR-5 = system: OVCAR-5
COLO 205 = system: COLO 205
OVCAR-3 = system: OVCAR-3
MDA-MB-231 = system: MDA-MB-231
A498 = system: A498
TK-10 = system: TK-10
PC-3 = system: PC-3
HCC 2998 = system: HCC 2998
HL-60 = system: HL-60
RPMI-8226 = system: RPMI-8226
SF-539 = system: SF-539
SNB-75 = system: SNB-75

SMILES: CNc1ccc2nc(-c3ccc(OC(=O)N(C)C)cc3)cn2c1
- GI50 (SK-OV-3): 19 µM (inactive)
- GI50 (SF-268): 16.5 µM (inactive)
- GI50 (U-251): 15.5 µM (inactive)
- GI50 (UO-31): 21.1 µM (inactive)
- GI50 (MOLT-4): 17.8 µM (inactive)
- GI50 (SK-MEL-28): 45.8 µM (inactive)
- GI50 (NCI-H226): 20.8 µM (inactive)
- GI50 (KM12): 17.1 µM (inactive)
- GI50 (CAKI-1): 21.4 µM (inactive)
- GI50 (SK-MEL-5): 23.1 µM (inactive)
- GI50 (OVCAR-8): 15.7 µM (inactive)
- GI50 (UACC-257): 50.4 µM (inactive)
- GI50 (CCRF-CEM): 12.6 µM (inactive)
- GI50 (HCT-15): 19.5 µM
- GI50 (MCF7): 20.7 µM (inactive)
- GI50 (BT-549): 17.8 µM (inactive)
- GI50 (HOP-92): 22.6 µM (inactive)
- GI50 (MDA-N): 19.2 µM (inactive)
- GI50 (LOX IMVI): 17.7 µM (inactive)
- GI50 (NCI-H522): 13.7 µM (inactive)
- GI50 (OVCAR-4): 17.5 µM (inactive)
- GI50 (SR): 19.1 µM (inactive)
- GI50 (SK-MEL-2): 14 µM (inactive)
- GI50 (EKVX): 19.3 µM (inactive)
- GI50 (SNB-19): 16.1 µM (inactive)
- GI50 (UACC-62): 18.8 µM (inactive)
- GI50 (Hs-578T): 41.2 µM (inactive)
- GI50 (A549): 16.9 µM (inactive)
- GI50 (MDA-MB-435): 17 µM (inactive)
- GI50 (SF-295): 17.7 µM (inactive)
- GI50 (ACHN): 19.2 µM (inactive)
- GI50 (HT-29): 17.7 µM (inactive)
- GI50 (HCT-116): 18.3 µM (inactive)
- GI50 (NCI-H460): 17.5 µM (inactive)
- GI50 (Malme-3M): 54.3 µM (inactive)
- GI50 (HOP-62): 18.8 µM (inactive)
- GI50 (786-0): 14.5 µM (inactive)
- GI50 (M14): 19.2 µM (inactive)
- GI50 (T47D): 22.2 µM (inactive)
- GI50 (SN12C): 14.1 µM (inactive)
- GI50 (DU-145): 24.3 µM (inactive)
- GI50 (NCI-H23): 21.2 µM (inactive)
- GI50 (K562): 21 µM (inactive)
- GI50 (NCI/ADR-RES): 23.3 µM (inactive)
- GI50 (IGROV-1): 17.9 µM (inactive)
- GI50 (RXF 393): 13.3 µM (inactive)
- GI50 (SW-620): 22.8 µM (inactive)
- GI50 (OVCAR-5): 22.9 µM (inactive)
- GI50 (COLO 205): 17.1 µM (inactive)
- GI50 (OVCAR-3): 40.7 µM (inactive)
- GI50 (MDA-MB-231): 17.1 µM (inactive)
- GI50 (A498): 17.5 µM (inactive)
- GI50 (TK-10): 17.9 µM (inactive)
- GI50 (PC-3): 16 µM (inactive)
- GI50 (HCC 2998): 30.1 µM (inactive)
- GI50 (HL-60): 22.5 µM (inactive)

SMILES: O=NN1CCNC1Cc1ccccc1 (configuration not stated)
- GI50 (SK-OV-3): 75.2 µM (inactive)
- GI50 (SF-268): 43.4 µM (inactive)
- GI50 (U-251): 33.3 µM (inactive)
- GI50 (UO-31): 43.7 µM (inactive)
- GI50 (MOLT-4): 27 µM (inactive)
- GI50 (SK-MEL-28): > 100 µM (inactive)
- GI50 (NCI-H226): > 100 µM (inactive)
- GI50 (KM12): > 100 µM (inactive)
- GI50 (SK-MEL-5): 72.6 µM (inactive)
- GI50 (OVCAR-8): > 100 µM (inactive)
- GI50 (UACC-257): > 100 µM (inactive)
- GI50 (CCRF-CEM): 31.8 µM (inactive)
- GI50 (RPMI-8226): 70 µM (inactive)
- GI50 (HCT-15): > 100 µM
- GI50 (MCF7): 37.2 µM (inactive)
- GI50 (BT-549): > 100 µM (inactive)
- GI50 (HOP-92): > 100 µM (inactive)
- GI50 (MDA-N): > 100 µM (inactive)
- GI50 (LOX IMVI): > 100 µM (inactive)
- GI50 (NCI-H522): 85.5 µM (inactive)
- GI50 (OVCAR-4): > 100 µM (inactive)
- GI50 (SR): 23.8 µM (inactive)
- GI50 (EKVX): > 100 µM (inactive)
- GI50 (SNB-19): 35.3 µM (inactive)
- GI50 (UACC-62): 46.8 µM (inactive)
- GI50 (SF-539): 48.9 µM (inactive)
- GI50 (Hs-578T): > 100 µM (inactive)
- GI50 (A549): > 100 µM (inactive)
- GI50 (MDA-MB-435): > 100 µM (inactive)
- GI50 (SF-295): 49 µM (inactive)
- GI50 (ACHN): 37.6 µM (inactive)
- GI50 (HT-29): > 100 µM (inactive)
- GI50 (HCT-116): 71.6 µM (inactive)
- GI50 (NCI-H460): 38.7 µM (inactive)
- GI50 (Malme-3M): > 100 µM (inactive)
- GI50 (HOP-62): 58.5 µM (inactive)
- GI50 (786-0): 52.8 µM (inactive)
- GI50 (M14): 41.6 µM (inactive)
- GI50 (T47D): 47.1 µM (inactive)
- GI50 (SN12C): 63 µM (inactive)
- GI50 (DU-145): 50.9 µM (inactive)
- GI50 (NCI-H23): 72.1 µM (inactive)
- GI50 (K562): > 100 µM (inactive)
- GI50 (SNB-75): 18.3 µM (inactive)
- GI50 (NCI/ADR-RES): > 100 µM (inactive)
- GI50 (IGROV-1): > 100 µM (inactive)
- GI50 (RXF 393): 88.7 µM (inactive)
- GI50 (SW-620): > 100 µM (inactive)
- GI50 (OVCAR-5): > 100 µM (inactive)
- GI50 (COLO 205): > 100 µM (inactive)
- GI50 (OVCAR-3): > 100 µM (inactive)
- GI50 (MDA-MB-231): > 100 µM (inactive)
- GI50 (TK-10): > 100 µM (inactive)
- GI50 (PC-3): > 100 µM (inactive)
- GI50 (HCC 2998): > 100 µM (inactive)
- GI50 (HL-60): 37.6 µM (inactive)

Reference: ChEMBL document CHEMBL1201862, “PubChem BioAssay data set” (2004)
